Patent US7671054B1, “Reverse-turn mimetics and method relating thereto” (Choongwae Pharma Corporation, priority 2001, dated 2010)
Read-outs that look alike come from different tables or passages of the source.

Key:
HCT116 cells = assay: Growth inhibition assay (MTS); format: cell-based; conditions: Homo sapiens, Table 5, HCT116 cells, 48 hours treatment, MTS, read-out: Growth Inhibition (GI50, uM) HCT116
Method: (§1) SW480 or HCT116 cells were placed into 96 well microplate (10^4cells/well) and incubated for 24 hours at 37° C. 20 μl of [3-(4,5-dimethylthiazol-2-yl)-5-(3-carboxyphenyl)-2-(4-sulfophenyl)-2H-tetrazolium, inner salt](MTS) solution (Promega) was added into each well and the absorbance after 2 hour incubation at 37° C. (negative control) was read. And then, the cells were treated with TCF4 compound at various concentrations for 48 hours. 20 μl of MTS solution (Promega) was added into each well and incubated for 2 hour at 37° C. Cell viability was measured by reading the absorbance at 490 nm using a microplate reader (Molecular device) and cytotoxicity of a compound at each concentration was calculated.
as §1, with “a test” for “TCF4”

SW480 cells = assay: Growth inhibition assay (MTS); format: cell-based; conditions: Homo sapiens, Table 5, SW480 cells
Method: as §1
as §1, with “a test” for “TCF4”

[1] = SW480, 48 h, 48 hours treatment, MTS, read-out: Growth Inhibition (GI50, uM) SW480

SMILES: CN1CC(=O)N2[C@@H](Cc3ccc(NC=O)cc3)C(=O)N(Cc3cccc4ccccc34)C[C@@H]2N1C(=O)NCc1ccccc1 [Compound 44]
- GI50 (HCT116 cells; HCT-116, 48 h): 4.2 ± 0.5 µM
- GI50 (SW480 cells; [1]): 3.8 ± 0.4 µM

SMILES: C[C@H]1[C@@H]2N(C(=O)CN(C)N2C(=O)NCc2ccccc2)[C@@H](Cc2ccc(O)cc2)C(=O)N1Cc1ccc(F)cc1F [Compound 45]
- GI50 (HCT116 cells; HCT-116, 48 h): 2.9 ± 0.4 µM
- GI50 (SW480 cells; [1]): 2.5 ± 0.2 µM

SMILES: CN1CC(=O)N2[C@@H](Cc3ccc(O)cc3)C(=O)N(Cc3cccc4[nH]ncc34)C[C@@H]2N1C(=O)NCc1ccccc1 [Compound 47]
- GI50 (HCT116 cells; HCT-116, 48 h): 12.2 µM
- GI50 (SW480 cells; [1]): 6.2 µM

SMILES: CN1CC(=O)N2[C@@H](Cc3ccc(O)cc3)C(=O)N(Cc3cccc(N4CCCCC4)c3)C[C@@H]2N1C(=O)NCc1ccccc1 [Compound 48]
- GI50 (HCT116 cells; HCT-116, 48 h): 15.5 ± 2.3 µM
- GI50 (SW480 cells; [1]): 20.7 ± 2.8 µM

SMILES: CN1CC(=O)N2[C@@H](Cc3ccc(O)cc3)C(=O)N(Cc3cccc4cnn(Cc5ccccc5[N+](=O)[O-])c34)C[C@@H]2N1C(=O)NCc1ccccc1 [Compound 51]
- GI50 (HCT116 cells; HCT-116, 48 h): 2.8 µM
- GI50 (SW480 cells; [1]): 3 ± 0.1 µM

SMILES: CN1CC(=O)N2[C@@H](Cc3ccc(O)cc3)C(=O)N(Cc3cccc4nnn(C)c34)C[C@@H]2N1C(=O)NCc1ccccc1 [Compound 52]
- GI50 (HCT116 cells; HCT-116, 48 h): 9.7 ± 0.9 µM
- GI50 (SW480 cells; [1]): 19.3 ± 2.1 µM

SMILES: CN1CC(=O)N2[C@@H](Cc3ccc(O)cc3)C(=O)N(Cc3cccc4c3nnn4C)C[C@@H]2N1C(=O)NCc1ccccc1 [Compound 53]
- GI50 (HCT116 cells; HCT-116, 48 h): 4.7 ± 0.4 µM
- GI50 (SW480 cells; [1]): 11.4 ± 0.9 µM

SMILES: CN1CC(=O)N2[C@@H](Cc3ccc(O)cc3)C(=O)N(Cc3ccc4ncsc4c3)C[C@@H]2N1C(=O)NCc1ccccc1 [Compound 54]
- GI50 (HCT116 cells; HCT-116, 48 h): 4.9 ± 0.7 µM
- GI50 (SW480 cells; [1]): 7.1 ± 0.5 µM

SMILES: CN(C)c1cccc(CN2C[C@H]3N(C(=O)CN(C)N3C(=O)NCc3ccccc3)[C@@H](Cc3ccc(O)cc3)C2=O)c1 [Compound 55]
- GI50 (HCT116 cells; HCT-116, 48 h): 4.1 ± 0.7 µM
- GI50 (SW480 cells; [1]): 4.6 ± 0.5 µM

SMILES: CN(Cc1ccccc1)c1cccc(CN2C[C@H]3N(C(=O)CN(C)N3C(=O)NCc3ccccc3)[C@@H](Cc3ccc(O)cc3)C2=O)c1 [Compound 56]
- GI50 (HCT116 cells; HCT-116, 48 h): 9.1 µM
- GI50 (SW480 cells; [1]): 10.8 µM

SMILES: C[C@H]1[C@H]2N(C(=O)CN(C)N2C(=O)NCc2ccccc2)[C@@H](Cc2ccc(O)cc2)C(=O)N1Cc1ccc(Cl)c(N(C)C)c1 [Compound 57]
- GI50 (HCT116 cells; HCT-116, 48 h): 5.1 ± 0.3 µM
- GI50 (SW480 cells; [1]): 3.1 ± 0.3 µM

SMILES: CCOP(=O)(CC(=O)Nc1ccc(C[C@H]2C(=O)N(Cc3cccc4ccccc34)C[C@H]3N2C(=O)CN(C)N3C(=O)NCc2ccccc2)cc1)OCC [Compound 59]
- GI50 (HCT116 cells; HCT-116): 55.1 ± 33.7 µM
- GI50 (SW480 cells; the cell prints nM, read-out: Growth Inhibition (GI50) SW480): > 0.05 µM

SMILES: CN1CC(=O)N2[C@@H](Cc3ccc(O)cc3)C(=O)N(Cc3cccc4ccccc34)C[C@@H]2N1C(=O)NCc1ccccc1 [Compound 60]
- GI50 (HCT116 cells; HCT-116, 48 h): 6.3 ± 2.6 µM
- GI50 (SW480 cells; [1]): 8.3 ± 1.4 µM

SMILES: CN1CC(=O)N2[C@@H](Cc3ccc(O)cc3)C(=O)N(Cc3ccc4cnn(Cc5ccccc5N)c4c3)C[C@@H]2N1C(=O)NCc1ccccc1 [Compound 61]
- GI50 (HCT116 cells; HCT-116, 48 h): 3.6 ± 0.3 µM
- GI50 (SW480 cells; [1]): 11.3 ± 6 µM

SMILES: CN(C)CCn1ncc2cccc(CN3C[C@H]4N(C(=O)CN(C)N4C(=O)NCc4ccccc4)[C@@H](Cc4ccc(O)cc4)C3=O)c21 [Compound 62]
- GI50 (HCT116 cells; HCT-116, 48 h): 23.5 ± 2.7 µM
- GI50 (SW480 cells; [1]): 35.3 ± 4.6 µM

SMILES: CN1CC(=O)N2[C@@H](Cc3ccc(O)cc3)C(=O)N(Cc3cccc4c3cnn4Cc3ccccc3N)C[C@@H]2N1C(=O)NCc1ccccc1 [Compound 63]
- GI50 (HCT116 cells; HCT-116, 48 h): 1.3 ± 0.1 µM
- GI50 (SW480 cells; [1]): 18.8 ± 4.8 µM

SMILES: CN1CC(=O)N2[C@@H](Cc3ccc(O)cc3)C(=O)N(Cc3ccc4cn[nH]c4c3)C[C@@H]2N1C(=O)NCc1ccccc1 [Compound 64]
- GI50 (HCT116 cells; HCT-116, 48 h): 19 ± 1.6 µM
- GI50 (SW480 cells; [1]): 12 ± 0.7 µM

SMILES: CN(Cc1ccccc1N)c1cccc(CN2C[C@H]3N(C(=O)CN(C)N3C(=O)NCc3ccccc3)[C@@H](Cc3ccc(O)cc3)C2=O)c1 [Compound 65]
- GI50 (HCT116 cells; HCT-116, 48 h): 4.7 µM
- GI50 (SW480 cells; [1]): 7.3 µM

SMILES: CN1CC(=O)N2[C@@H](Cc3ccc(O)cc3)C(=O)N(Cc3cccc4cn(Cc5cccc(N)c5)nc34)C[C@@H]2N1C(=O)NCc1ccccc1 [Compound 66]
- GI50 (HCT116 cells; HCT-116, 48 h): 5.8 ± 0.3 µM
- GI50 (SW480 cells; [1]): 3 ± 0.3 µM

SMILES: CN1CC(=O)N2[C@@H](Cc3ccc(O)cc3)C(=O)N(Cc3cccc4cnn(Cc5cccc(N)c5)c34)C[C@@H]2N1C(=O)NCc1ccccc1 [Compound 67]
- GI50 (HCT116 cells; HCT-116, 48 h): 0.3 ± 0.03 µM
- GI50 (SW480 cells; [1]): 0.6 ± 0.2 µM

SMILES: C#CCn1ncc2ccc(CN3C[C@H]4N(C(=O)CN(C)N4C(=O)NCc4ccccc4)[C@@H](Cc4ccc(O)cc4)C3=O)cc21 [Compound 68]
- GI50 (HCT116 cells; HCT-116, 48 h): 3.8 ± 0.6 µM
- GI50 (SW480 cells; [1]): 3.7 ± 0.2 µM

SMILES: CN1CC(=O)N2[C@@H](Cc3ccc(O)cc3)C(=O)N(Cc3cccc4cnn(CCN5CCOCC5)c34)C[C@@H]2N1C(=O)NCc1ccccc1 [Compound 69]
- GI50 (HCT116 cells; HCT-116, 48 h): 9.7 ± 1 µM
- GI50 (SW480 cells; [1]): 17.9 ± 3.1 µM

SMILES: CN1CC(=O)N2[C@@H](Cc3ccc(O)cc3)C(=O)N(Cc3ccc4cccnc4c3)C[C@@H]2N1C(=O)NCc1ccccc1 [Compound 70]
- GI50 (HCT116 cells; HCT-116, 48 h): 7.2 ± 0.7 µM
- GI50 (SW480 cells; [1]): 7.4 ± 0.6 µM

SMILES: C#CCn1cc2c(CN3C[C@H]4N(C(=O)CN(C)N4C(=O)NCc4ccccc4)[C@@H](Cc4ccc(O)cc4)C3=O)cccc2n1 [Compound 71]
- GI50 (HCT116 cells; HCT-116, 48 h): 3.6 ± 0.7 µM
- GI50 (SW480 cells; [1]): 4.6 ± 0.5 µM

SMILES: CN1CC(=O)N2[C@@H](Cc3ccc(O)cc3)C(=O)N(Cc3ccccc3N3CCOCC3)C[C@@H]2N1C(=O)NCc1ccccc1 [Compound 72]
- GI50 (HCT116 cells; HCT-116, 48 h): 10.3 ± 1.6 µM
- GI50 (SW480 cells; [1]): 10.9 ± 0.6 µM

SMILES: COC(=O)c1ccccc1Cn1ncc2c(CN3C[C@H]4N(C(=O)CN(C)N4C(=O)NCc4ccccc4)[C@@H](Cc4ccc(O)cc4)C3=O)cccc21 [Compound 74]
- GI50 (HCT116 cells; HCT-116, 48 h): 2.4 ± 0.3 µM
- GI50 (SW480 cells; [1]): 1.3 ± 0.4 µM

SMILES: CN1CC(=O)N2[C@@H](Cc3ccc(O)cc3)C(=O)N(Cc3cccc4nn(CCN5CCOCC5)cc34)C[C@@H]2N1C(=O)NCc1ccccc1 [Compound 75]
- GI50 (HCT116 cells; HCT-116, 48 h): 4.5 ± 0.4 µM
- GI50 (SW480 cells; [1]): 2 ± 0.1 µM

SMILES: CN1CC(=O)N2[C@@H](Cc3ccc(O)cc3)C(=O)N(Cc3cccc4cnn(Cc5ccc(N)cc5)c34)C[C@@H]2N1C(=O)NCc1ccccc1 [Compound 78]
- GI50 (HCT116 cells; HCT-116, 48 h): 3.7 ± 0.3 µM
- GI50 (SW480 cells; [1]): 2.2 ± 0.2 µM

SMILES: C#CCn1cc2cccc(CN3C[C@H]4N(C(=O)CN(C)N4C(=O)NCc4ccccc4)[C@@H](Cc4ccc(O)cc4)C3=O)c2n1 [Compound 79]
- GI50 (HCT116 cells; HCT-116, 48 h): 5.2 ± 0.4 µM
- GI50 (SW480 cells; [1]): 2.8 ± 0.2 µM

SMILES: C#CCNC(=O)c1ccccc1Cn1ncc2c(CN3C[C@H]4N(C(=O)CN(C)N4C(=O)NCc4ccccc4)[C@@H](Cc4ccc(O)cc4)C3=O)cccc21 [Compound 80]
- GI50 (HCT116 cells; HCT-116, 48 h): 3.9 ± 0.6 µM
- GI50 (SW480 cells; [1]): 4 ± 0.6 µM

SMILES: C#CCN1CC(=O)N2[C@@H](Cc3ccc(O)cc3)C(=O)N(Cc3ccc(Cl)c(N(C)C)c3)C[C@@H]2N1C(=O)NCc1ccccc1 [Compound 83]
- GI50 (HCT116 cells; HCT-116, 48 h): 2.5 ± 0.1 µM
- GI50 (SW480 cells; [1]): 2.3 ± 0.3 µM

SMILES: C#CCN1CC(=O)N2[C@@H](Cc3ccc(O)cc3)C(=O)N(Cc3ccc(F)cc3F)[C@@H](C)[C@@H]2N1C(=O)NCc1ccccc1 [Compound 84]
- GI50 (HCT116 cells; HCT-116): 9.9 ± 1 µM
- GI50 (SW480 cells; 48 hours treatment, MTS, read-out: Growth Inhibition (GI50, uM) SW480): 8.4 ± 1.1 µM

SMILES: CN1CC(=O)N2[C@@H]([C@H](O)c3ccc(O)cc3)C(=O)N(Cc3ccc(F)cc3F)C[C@@H]2N1C(=O)NCc1ccccc1 [Compound 86]
- GI50 (HCT116 cells; HCT-116, 48 h): 6.5 ± 0.6 µM
- GI50 (SW480 cells; [1]): 9.6 ± 1.6 µM

SMILES: C#CCN1CC(=O)N2[C@@H](Cc3ccc(O)cc3)C(=O)N(Cc3cccc4cccnc34)C[C@@H]2N1C(=O)NCc1ccccc1 [Compound 87]
- GI50 (HCT116 cells; HCT-116, 48 h): 0.5 ± 0.1 µM
- GI50 (SW480 cells; [1]): 0.6 ± 0.2 µM

SMILES: CN(C)Cc1cccc(CN2C[C@H]3N(C(=O)CN(C)N3C(=O)NCc3ccccc3)[C@@H](Cc3ccc(O)cc3)C2=O)c1 [Compound 89]
- GI50 (HCT116 cells; HCT-116, 48 h): 7.5 ± 1 µM
- GI50 (SW480 cells; [1]): 14.6 ± 1.4 µM

SMILES: CN1CC(=O)N2[C@@H](Cc3ccc(O)cc3)C(=O)N(Cc3cccc(N4CCOCC4)c3)C[C@@H]2N1C(=O)NCc1ccccc1 [Compound 90]
- GI50 (HCT116 cells; HCT-116, 48 h): 14.7 ± 1 µM
- GI50 (SW480 cells; [1]): 12.6 ± 0.9 µM

SMILES: C#CCN1CC(=O)N2[C@@H](Cc3ccc(O)cc3)C(=O)N(Cc3cccc(N4CCOCC4)c3)C[C@@H]2N1C(=O)NCc1ccccc1 [Compound 91]
- GI50 (HCT116 cells; HCT-116, 48 h): 3.2 ± 0.2 µM
- GI50 (SW480 cells; [1]): 1.5 ± 0.1 µM
